From ChEMBL document CHEMBL1275577, “Study of the in vitro activities of rifaximin and comparator agents against 536 anaerobic intestinal bacteria from the perspective of potential utility in pathology involving bowel flora” (Antimicrob Agents Chemother, 2009)
In brackets after ≈: the same amount, converted by molar mass.

Assays:
Assay type in all cases: functional
[1] = system: Parabacteroides distasonis; assay: Antimicrobial activity against Parabacteroides distasonis by Wadsworth agar dilution method
[2] = system: Bacteroides fragilis; assay: Antimicrobial activity against Bacteroides fragilis by Wadsworth agar dilution method
[3] = system: Parabacteroides goldsteinii; assay: Antimicrobial activity against Parabacteroides goldsteinii by Wadsworth agar dilution method
[4] = system: Bacteroides stercoris; assay: Antimicrobial activity against Bacteroides stercoris by Wadsworth agar dilution method
[5] = system: Bilophila wadsworthia; assay: Antimicrobial activity against Bilophila wadsworthia by Wadsworth agar dilution method in presence of 1% pyruvic acid
[6] = system: Desulfovibrio piger; assay: Antimicrobial activity against Desulfovibrio piger by Wadsworth agar dilution method
[7] = system: Desulfovibrio sp.; assay: Antimicrobial activity against Desulfovibrio sp. by Wadsworth agar dilution method
[8] = system: Fusobacterium mortiferum; assay: Antimicrobial activity against Fusobacterium mortiferum by Wadsworth agar dilution method in presence of beta-lactamase inhibitor Sulbactam
[9] = system: Porphyromonas; assay: Antimicrobial activity against Porphyromonas sp. by Wadsworth agar dilution method
[10] = system: Porphyromonas asaccharolytica; assay: Antimicrobial activity against Porphyromonas asaccharolyticus by Wadsworth agar dilution method
[11] = system: Porphyromonas somerae; assay: Antimicrobial activity against Porphyromonas somerae by Wadsworth agar dilution method
[12] = system: Porphyromonas uenonis; assay: Antimicrobial activity against Porphyromonas uenonis by Wadsworth agar dilution method
[13] = system: Prevotella corporis; assay: Antimicrobial activity against Prevotella corporis by Wadsworth agar dilution method
[14] = system: [Clostridium] innocuum; assay: Antimicrobial activity against Clostridium innocuum by Wadsworth agar dilution method
[15] = system: Clostridium acetobutylicum; assay: Antimicrobial activity against Clostridium acetobutylicum by Wadsworth agar dilution method
[16] = system: Clostridium bartlettii; assay: Antimicrobial activity against Clostridium bartlettii by Wadsworth agar dilution method; settings: Intestinibacter bartlettii
[17] = system: Clostridium beijerinckii; assay: Antimicrobial activity against Clostridium beijerinckii by Wadsworth agar dilution method
[18] = system: Clostridium bolteae; assay: Antimicrobial activity against Clostridium bolteae by Wadsworth agar dilution method; settings: Enterocloster bolteae
[19] = system: Clostridium cocleatum; assay: Antimicrobial activity against Clostridium cocleatum by Wadsworth agar dilution method; settings: Thomasclavelia cocleata
[20] = system: Clostridium fallax; assay: Antimicrobial activity against Clostridium fallax by Wadsworth agar dilution method
[21] = system: Clostridium glycolicum; assay: Antimicrobial activity against Clostridium glycolicum by Wadsworth agar dilution method; settings: Terrisporobacter glycolicus
[22] = system: Clostridium nexile; assay: Antimicrobial activity against Clostridium nexile by Wadsworth agar dilution method; settings: Faecalimonas nexilis
[23] = system: Clostridium paraputrificum; assay: Antimicrobial activity against Clostridium paraputrificum by Wadsworth agar dilution method
[24] = system: Thomasclavelia ramosa; assay: Antimicrobial activity against Clostridium ramosum by Wadsworth agar dilution method
[25] = system: Fusobacterium mortiferum; assay: Antimicrobial activity against Clostridium rectum by Wadsworth agar dilution method
[26] = system: Paeniclostridium sordellii; assay: Antimicrobial activity against Clostridium sordellii by Wadsworth agar dilution method; settings: Paraclostridium sordellii
[27] = system: Clostridium spiroforme; assay: Antimicrobial activity against Clostridium spiroforme by Wadsworth agar dilution method; settings: Thomasclavelia spiroformis
[28] = system: Clostridium sporogenes; assay: Antimicrobial activity against Clostridium sporogenes by Wadsworth agar dilution method
[29] = system: Schaalia odontolytica; assay: Antimicrobial activity against Actinomyces odontolyticus by Wadsworth agar dilution method
[30] = system: Actinomyces viscosus; assay: Antimicrobial activity against Actinomyces viscosus by Wadsworth agar dilution method
[31] = system: Bifidobacterium bifidum; assay: Antimicrobial activity against Bifidobacterium bifidum by Wadsworth agar dilution method
[32] = system: Bifidobacterium breve; assay: Antimicrobial activity against Bifidobacterium breve by Wadsworth agar dilution method
[33] = system: Bifidobacterium longum; assay: Antimicrobial activity against Bifidobacterium longum by Wadsworth agar dilution method
[34] = Antimicrobial activity against Bifidobacterium pseudocatenulatum by Wadsworth agar dilution method
[35] = system: Catenibacterium mitsuokai; assay: Antimicrobial activity against Catenibacterium mitsuokai by Wadsworth agar dilution method
[36] = system: Pseudoramibacter alactolyticus; assay: Antimicrobial activity against Eubacterium alactolyticum by Wadsworth agar dilution method
[37] = system: Eubacterium callanderi; assay: Antimicrobial activity against Eubacterium callanderi by Wadsworth agar dilution method
[38] = system: Lactobacillus catenaformis; assay: Antimicrobial activity against Lactobacillus catenaformis by Wadsworth agar dilution method; settings: Eggerthia catenaformis
[39] = system: Limosilactobacillus fermentum; assay: Antimicrobial activity against Lactobacillus fermentum by Wadsworth agar dilution method
[40] = system: Lactobacillus sp.; assay: Antimicrobial activity against Lactobacillus sp. by Wadsworth agar dilution method
[41] = system: Propionibacterium avidum; assay: Antimicrobial activity against Propionibacterium avidum by Wadsworth agar dilution method; settings: Cutibacterium avidum
[42] = system: Anaerococcus prevotii; assay: Antimicrobial activity against Anaerococcus prevotii by Wadsworth agar dilution method
[43] = system: Finegoldia magna; assay: Antimicrobial activity against Finegoldia magna by Wadsworth agar dilution method
[44] = system: Ruminococcus flavefaciens; assay: Antimicrobial activity against Ruminococcus flavefaciens by Wadsworth agar dilution method
[45] = system: Ruminococcus gnavus; assay: Antimicrobial activity against Ruminococcus gnavus by Wadsworth agar dilution method; settings: Mediterraneibacter gnavus
[46] = system: Ruminococcus obeum; assay: Antimicrobial activity against Ruminococcus obeum by Wadsworth agar dilution method; settings: Blautia obeum
[47] = system: Ruminococcus torques; assay: Antimicrobial activity against Ruminococcus torques by Wadsworth agar dilution method; settings: Mediterraneibacter torques

CO[C@H]1/C=C/O[C@@]2(C)Oc3c(C)c(O)c4c(O)c(c5c(nc6cc(C)ccn65)c4c3C2=O)NC(=O)/C(C)=C\C=C\[C@H](C)[C@H](O)[C@@H](C)[C@@H](O)[C@@H](C)[C@H](OC(C)=O)[C@@H]1C [RIFAXIMIN]
MIC [1]: 0.25 µg/mL (≈ 0.318 µM) | MIC50 [1]: 0.25 µg/mL (≈ 0.318 µM) | MIC90 [1]: 1 µg/mL (≈ 1.27 µM) | MIC [2]: 0.25 µg/mL (≈ 0.318 µM) | MIC50 [2]: 0.25 µg/mL (≈ 0.318 µM) | MIC90 [2]: > 1020 µg/mL | MIC [3]: 0.25 µg/mL (≈ 0.318 µM) | MIC50 [3]: 0.25 µg/mL (≈ 0.318 µM) | MIC90 [3]: 1 µg/mL (≈ 1.27 µM) | MIC [4]: 0.25 µg/mL (≈ 0.318 µM) | MIC50 [4]: 0.25 µg/mL (≈ 0.318 µM) | MIC90 [4]: 0.5 µg/mL (≈ 0.636 µM) | MIC [5]: 0.25 µg/mL | MIC50 [5]: 0.25 µg/mL | MIC90 [5]: 0.5 µg/mL | MIC50 [6]: 16 µg/mL (≈ 20.4 µM) | MIC90 [6]: 332 µg/mL (≈ 422 µM) | MIC50 [7]: 16 µg/mL (≈ 20.4 µM) | MIC90 [7]: 332 µg/mL (≈ 422 µM) | MIC50 [8]: 16 µg/mL | MIC90 [8]: > 1020 µg/mL | MIC [9]: 0.25 µg/mL (≈ 0.318 µM) | MIC50 [9]: 0.25 µg/mL (≈ 0.318 µM) | MIC90 [9]: 0.5 µg/mL (≈ 0.636 µM) | MIC [10]: 0.25 µg/mL (≈ 0.318 µM) | MIC50 [10]: 0.25 µg/mL (≈ 0.318 µM) | MIC90 [10]: 0.5 µg/mL (≈ 0.636 µM) | MIC [11]: 0.25 µg/mL (≈ 0.318 µM) | MIC50 [11]: 0.25 µg/mL (≈ 0.318 µM) | MIC90 [11]: 0.5 µg/mL (≈ 0.636 µM) | MIC [12]: 0.25 µg/mL (≈ 0.318 µM) | MIC50 [12]: 0.25 µg/mL (≈ 0.318 µM) | MIC90 [12]: 0.5 µg/mL (≈ 0.636 µM) | MIC [13]: 0.25 µg/mL (≈ 0.318 µM) | MIC50 [13]: 0.25 µg/mL (≈ 0.318 µM) | MIC90 [13]: 0.5 µg/mL (≈ 0.636 µM) | MIC50 [14]: > 1020 µg/mL | MIC90 [14]: > 1020 µg/mL | MIC [15]: 0.25 µg/mL (≈ 0.318 µM) | MIC50 [15]: 0.25 µg/mL (≈ 0.318 µM) | MIC90 [15]: > 1020 µg/mL | MIC [16]: 0.25 µg/mL (≈ 0.318 µM) | MIC50 [16]: 0.25 µg/mL (≈ 0.318 µM) | MIC90 [16]: > 1020 µg/mL | MIC [17]: 0.25 µg/mL (≈ 0.318 µM) | MIC50 [17]: 0.25 µg/mL (≈ 0.318 µM) | MIC90 [17]: > 1020 µg/mL | MIC [18]: 0.25 µg/mL (≈ 0.318 µM) | MIC50 [18]: 0.25 µg/mL (≈ 0.318 µM) | MIC90 [18]: > 1020 µg/mL | MIC [19]: 0.25 µg/mL (≈ 0.318 µM) | MIC50 [19]: 0.25 µg/mL (≈ 0.318 µM) | MIC90 [19]: > 1020 µg/mL | MIC [20]: 0.25 µg/mL (≈ 0.318 µM) | MIC50 [20]: 0.25 µg/mL (≈ 0.318 µM) | MIC90 [20]: > 1020 µg/mL | MIC [21]: 0.25 µg/mL (≈ 0.318 µM) | MIC50 [21]: 0.25 µg/mL (≈ 0.318 µM) | MIC90 [21]: > 1020 µg/mL | MIC [22]: 0.25 µg/mL (≈ 0.318 µM) | MIC50 [22]: 0.25 µg/mL (≈ 0.318 µM) | MIC90 [22]: > 1020 µg/mL | MIC [23]: 0.25 µg/mL (≈ 0.318 µM) | MIC50 [23]: 0.25 µg/mL (≈ 0.318 µM) | MIC90 [23]: > 1020 µg/mL | MIC [24]: 0.25 µg/mL (≈ 0.318 µM) | MIC50 [24]: 0.25 µg/mL (≈ 0.318 µM) | MIC90 [24]: > 1020 µg/mL | MIC [25]: 0.25 µg/mL (≈ 0.318 µM) | MIC50 [25]: 0.25 µg/mL (≈ 0.318 µM) | MIC90 [25]: > 1020 µg/mL | MIC [26]: 0.25 µg/mL (≈ 0.318 µM) | MIC50 [26]: 0.25 µg/mL (≈ 0.318 µM) | MIC90 [26]: > 1020 µg/mL | MIC [27]: 0.25 µg/mL (≈ 0.318 µM) | MIC50 [27]: 0.25 µg/mL (≈ 0.318 µM) | MIC90 [27]: > 1020 µg/mL | MIC [28]: 0.25 µg/mL (≈ 0.318 µM) | MIC50 [28]: 0.25 µg/mL (≈ 0.318 µM) | MIC90 [28]: > 1020 µg/mL | MIC50 [29]: 0.5 µg/mL (≈ 0.636 µM) | MIC90 [29]: > 1020 µg/mL | MIC50 [30]: 0.5 µg/mL (≈ 0.636 µM) | MIC90 [30]: > 1020 µg/mL | MIC50 [31]: 0.5 µg/mL (≈ 0.636 µM) | MIC90 [31]: > 1020 µg/mL | MIC50 [32]: 0.5 µg/mL (≈ 0.636 µM) | MIC90 [32]: > 1020 µg/mL | MIC50 [33]: 0.5 µg/mL (≈ 0.636 µM) | MIC90 [33]: > 1020 µg/mL | MIC50 [34]: 0.5 µg/mL (≈ 0.636 µM) | MIC90 [34]: > 1020 µg/mL | MIC50 [35]: 0.5 µg/mL (≈ 0.636 µM) | MIC90 [35]: > 1020 µg/mL | MIC50 [36]: 0.5 µg/mL (≈ 0.636 µM) | MIC90 [36]: > 1020 µg/mL | MIC50 [37]: 0.5 µg/mL (≈ 0.636 µM) | MIC90 [37]: > 1020 µg/mL | MIC50 [38]: 0.5 µg/mL (≈ 0.636 µM) | MIC90 [38]: > 1020 µg/mL | MIC50 [39]: 0.5 µg/mL (≈ 0.636 µM) | MIC90 [39]: > 1020 µg/mL | MIC50 [40]: 0.5 µg/mL (≈ 0.636 µM) | MIC90 [40]: > 1020 µg/mL | MIC50 [41]: 0.5 µg/mL (≈ 0.636 µM) | MIC90 [41]: > 1020 µg/mL | MIC [42]: 0.25 µg/mL (≈ 0.318 µM) | MIC50 [42]: 0.25 µg/mL (≈ 0.318 µM) | MIC90 [42]: 4 µg/mL (≈ 5.09 µM) | MIC [43]: 0.25 µg/mL (≈ 0.318 µM) | MIC50 [43]: 0.25 µg/mL (≈ 0.318 µM) | MIC90 [43]: 4 µg/mL (≈ 5.09 µM) | MIC [44]: 0.25 µg/mL (≈ 0.318 µM) | MIC50 [44]: 0.25 µg/mL (≈ 0.318 µM) | MIC90 [44]: 4 µg/mL (≈ 5.09 µM) | MIC [45]: 0.25 µg/mL (≈ 0.318 µM) | MIC50 [45]: 0.25 µg/mL (≈ 0.318 µM) | MIC90 [45]: 4 µg/mL (≈ 5.09 µM) | MIC [46]: 0.25 µg/mL (≈ 0.318 µM) | MIC50 [46]: 0.25 µg/mL (≈ 0.318 µM) | MIC90 [46]: 4 µg/mL (≈ 5.09 µM) | MIC [47]: 0.25 µg/mL (≈ 0.318 µM) | MIC50 [47]: 0.25 µg/mL (≈ 0.318 µM) | MIC90 [47]: 4 µg/mL (≈ 5.09 µM)
